From patent US20250346588A1, “IMIDAZOPYRIDINE AND OXAZOLOPYRIDINE DERIVATIVES AND ANALOGS THEREOF, METHODS OF PREPARATION THEREOF, METHODS OF HIF-1/2A PATHWAY INHIBITION, AND INDUCTION OF FERROPTOSIS” (KUDA THERAPEUTICS, INC., priority 2022, published 2025)

Tests used:
786-0 cells = assay: TBARS assay of lipid peroxidation (MDA); format: cell-based, human; details: 48h treatment
Experimental: Malondialdehyde (MDA) is an end product of lipid peroxidation products and can be used to indicate lipid peroxidation, which is a hallmark of ferroptosis. MDA adducts were quantitated in cells and tumor tissue using the TBARS-TCA Method kit (Cat 700870, Cayman Chemicals, Ann Arbour Michigan) according to the manufacturer's protocol. Briefly, 786-0 cells were seeded at 1.75×10E6 cells in T75 cm^2 flasks, allowed to adhere overnight in a humidified incubator at 37° C. with 5% CO2, then treated with test compounds for 48 h, RSL3 (as positive control for 6h) or DMSO control (volume of DMSO kept constant for all flasks). Cells were detached by trypsinization, pelleted by centrifugation, washed in PBS twice, resuspended in 200 μL PBS, then sonicated for 3 minutes in a sonicating water bath. Representative data showing effects of 26HCL or 62TFA in comparison to RSL3, a classical ferroptosis inducer, is shown in FIG. 5. For MDA quantitation in tumor chunks, 20-50 mg of tumor tissue was homogenized in 200-500 μL of PBS, then sonicated for 5 minutes in a sonicating water bath. The cell or tumor lysates were subjected to the colorimetric detection methods described in manufacturer's protocol. MDA concentration of cells was determined in comparison to a standard curve of MDA stock solution provided by the manufacturer. Data was plotted using Prism GraphPad 9.3.1 Software. […]

[1] = system: HIF-2α Iron-Responsive Element (IRE); assay: HIF-2α IRE-Luc reporter assay; format: cell-based, human; details: 786-0 cells stably expressing HIF-2α IRE-Luc, 24h
Experimental: Screens for inhibitory activity of compounds described herein were performed using 786-0 ccRCC cells that stably express HRE-Luc: 5 copies of the hypoxia-responsive element (HRE) fused to the pGL3 luciferase reporter (Promega Corp, Madison WI). 786-0 cells are pVHL deficient and thus constitutively express HIF-2α independently of cellular oxygen tension. Since 786-0 cells lack HIF-1α, HRE-driven luciferase activity is primarily HIF-2α driven, and has been previously validated. Cells were maintained at log phase growth in […] (DMEM) with 10% FBS in a humidified incubator at 37° C. with 5% CO2. For screening assays, cells were seeded at a density of 4,000 cells in 50 μl of complete media/well in quadruplicate wells/point in a 96-well plate. After 24 h, 50 μl of a 2× concentration of test compound was added to each well. […] After 24 h treatment, luciferase activity was measured using the Steady-Glo Luciferase assay system (Promega Corp) according to the manufacturer's protocol. Cell viability was measured in quadruplicate parallel wells using resazurin as recommended by the manufacturer (R&D systems, Minneapolis, MN). […] Representative data determined using Steady-Glo luciferase and resazurin are shown in FIGS. 1A and 1B respectively, with error bars showing SD. […]

IRP2 and GPX4 = assay: Western blots for cellular iron-sensing machinery (IRP2, GPX4); format: cell-based, human; details: 786-0 or RCC10 ccRCC cells, 24h, relative to GAPDH
Experimental: (§1) Western blots were performed to determine the effects of the compounds on levels of HIF-2α and other relevant proteins, whereas qPCR was performed to determine the effects of compounds on transcript levels of HIF target genes. 786-0 or RCC10 cells were plated at 1×10E5 cells/well in 2 ml DMEM with 10% FBS/well in 6-well tissue culture plates. Cells were allowed to adhere overnight in a humidified incubator at 37° C. with 5% CO2, after which the appropriate concentrations of compounds in DMSO were added. DMSO concentrations were kept constant in all wells. After 24 h exposure to the compounds, cells were lysed and subjected to western blotting according to standard protocols. Antibodies for HIF-1α and HIF-2α and GAPDH were purchased from Cell Signaling Technology (Danvers, MA), whereas antibodies to IRP2 and pVHL were from Santa Cruz Biotechnology (Dallas, TX), and GPX4 antibody was from R&D Systems, Inc (Minneapolis, MN). Representative data in FIG. 2 show a dose-dependent effect of compounds in decreasing HIF-1/2α. Compounds also impact cellular iron sensing given by increased IRP2, which taken together indicate that cells sense decreased amounts of available iron, which triggers the iron starvation response initiated by IRP2 stabilization. Representative data shown in FIG. 3D show a dose dependent effect of the compounds on GPX4, which may indicate decreased resistance to ferroptosis. […] The data also show increased expression of ISCA2 with pVHL re-expression.

HIF-1α and HIF-2α = assay: Western blots for HIF-1α and HIF-2α in ccRCC cells; format: cell-based, human; details: 786-0 or RCC10 ccRCC cells, 24h, relative to GAPDH
Experimental: as §1

RENCA syngeneic tumors = assay: RENCA syngeneic tumor model, immunohistochemistry of tumors; format: in vivo; details: Balb/c mice, once daily oral dosing, 14 days
Experimental: A similar study was performed using RENCA cells, which are derived from a renal tumor that arose spontaneously in a male Balb/c mouse. RENCA cells were purchased from ATCC and 2 million cells were implanted into the flanks of Balb/c mice. Once tumors attained an average size of approximately 75-100 mm^3, mice were stratified into two groups and animals treated with either vehicle or 70 mg/kg 26HCL once daily PO. Mouse tumor volumes were measured three times a week until tumors reached approximately 3000 mm^3, or mice required euthanasia. […] FIG. 10B through 10D show western blot quantitation and MDA quantitation by TBARs assay, as performed for the 786-0 xenografts.
Similar studies were performed using 786-0 and RENCA tumor models treated with 62TFA. […] Immunohistochemistry was performed using standard techniques using CD8 (CST98941) and CD31 (CST77699) purchased from Cell Signaling Technologies.

[2] = system: RCC4 or 786-0 cells±pVHL re-expression; assay: Cell viability with pVHL re-expression; format: cell-based, human; details: 48h
Bioavailability studies = format: in vivo; details: Swiss albino mice, at a 100 mg/kg dose

- half-life (Bioavailability studies): 7 h
- Bioavailability F (Bioavailability studies; oral): 55%
Structure (SMILES): COc1nccc2[nH]c(Nc3nnc([C@H]4CC[C@@H](OC)CC4)o3)nc12 [Compound 62TFA, N-(4-methoxy-1H-imidazo[4,5-c]pyridin-2-yl)-5-((1s,4s)-4-methoxycyclohexyl)-1,3,4-oxadiazol-2-amine]
- lipid peroxidation (MDA-TBA adducts) (786-0 cells): induce lipid peroxidation to an extent comparable to the ferroptosis inducer RSL3
- effect on IRE-luciferase reporter activity normalized to resazurin [1]: decrease IRE-mediated translation of HIF-2α
- effect on IRP2 protein (Western blot) (IRP2 and GPX4): increases IRP2
- effect on HIF-1α and HIF-2α protein (Western blot) (HIF-1α and HIF-2α): decreases HIF-1α and HIF-2α
- CD8 cytotoxic T-cell infiltration (immunohistochemistry of tumors) (RENCA syngeneic tumors): increases CD8-T cell infiltration
- angiogenesis (CD31 immunohistochemistry of tumors) (RENCA syngeneic tumors): markedly decreases angiogenesis
- effect of pVHL re-expression on cell viability response to compound [2]: re-expression of pVHL promotes resistance
